# Legend:
# [1] = tested on: benign prostate epithelial cells; assay: Modified Boyden chamber matrigel invasion assay, exogenous addition of amino acids; type: cell-based; settings: compared with sarcosine
# Description: (§1) To investigate the biological role of sarcosine elevation in prostate cancer, prostate cancer cell lines VCaP, DU145, 22RV1 and LNCaP and their benign epithelial counterparts, primary benign prostate epithelial cells PrEC and immortalized benign RWPE prostate cells were used.
# (§2) To determine if sarcosine plays a role in this process, it was added directly to non-invasive benign prostate epithelial cells. Alanine (an isomer of sarcosine) was used as a control for these experiments. […] The present invention is not limited to a particular mechanism. Indeed, an understanding of the mechanism is not necessary to practice the present invention.
# RWPE cells [2] = assay: Invasion upon exogenous sarcosine or glycine with siRNA knock-down of GNMT; type: cell-based
# Description: as §2
# src = assay: Immunoblot analysis of src phosphorylation; type: cell-based; settings: sarcosine-treated PrEC compared to alanine-treated controls
# From the text: (§3) Also total EGFR levels were elevated upon treatment with alanine or sarcosine. […]. […] This observation was further strengthened using both antibody-mediated inhibition of EGFRactivity and siRNA-mediated knock-down of receptor levels.
# EGFR = EGFR (Homo sapiens, UniProt P00533); assay: Immunoblot analysis of EGFR phosphorylation and total EGFR; settings: for total EGFR levels: upon treatment, PrEC
# p38MAPK = assay: Immunoblot analysis of p38MAPK phosphorylation; type: cell-based; settings: sarcosine-treated PrEC
# From the text: as §3
# RWPE cells [3] = assay: Sarcosine-induced invasion after pre-treatment with EGFR inhibitor; type: cell-based; settings: pre-treatment of RWPE cells with 10 μM
# From the text: as §1
# [4] = control non-target siRNA-transfected cells
# Sequence of EGFR (P00533 25-1210): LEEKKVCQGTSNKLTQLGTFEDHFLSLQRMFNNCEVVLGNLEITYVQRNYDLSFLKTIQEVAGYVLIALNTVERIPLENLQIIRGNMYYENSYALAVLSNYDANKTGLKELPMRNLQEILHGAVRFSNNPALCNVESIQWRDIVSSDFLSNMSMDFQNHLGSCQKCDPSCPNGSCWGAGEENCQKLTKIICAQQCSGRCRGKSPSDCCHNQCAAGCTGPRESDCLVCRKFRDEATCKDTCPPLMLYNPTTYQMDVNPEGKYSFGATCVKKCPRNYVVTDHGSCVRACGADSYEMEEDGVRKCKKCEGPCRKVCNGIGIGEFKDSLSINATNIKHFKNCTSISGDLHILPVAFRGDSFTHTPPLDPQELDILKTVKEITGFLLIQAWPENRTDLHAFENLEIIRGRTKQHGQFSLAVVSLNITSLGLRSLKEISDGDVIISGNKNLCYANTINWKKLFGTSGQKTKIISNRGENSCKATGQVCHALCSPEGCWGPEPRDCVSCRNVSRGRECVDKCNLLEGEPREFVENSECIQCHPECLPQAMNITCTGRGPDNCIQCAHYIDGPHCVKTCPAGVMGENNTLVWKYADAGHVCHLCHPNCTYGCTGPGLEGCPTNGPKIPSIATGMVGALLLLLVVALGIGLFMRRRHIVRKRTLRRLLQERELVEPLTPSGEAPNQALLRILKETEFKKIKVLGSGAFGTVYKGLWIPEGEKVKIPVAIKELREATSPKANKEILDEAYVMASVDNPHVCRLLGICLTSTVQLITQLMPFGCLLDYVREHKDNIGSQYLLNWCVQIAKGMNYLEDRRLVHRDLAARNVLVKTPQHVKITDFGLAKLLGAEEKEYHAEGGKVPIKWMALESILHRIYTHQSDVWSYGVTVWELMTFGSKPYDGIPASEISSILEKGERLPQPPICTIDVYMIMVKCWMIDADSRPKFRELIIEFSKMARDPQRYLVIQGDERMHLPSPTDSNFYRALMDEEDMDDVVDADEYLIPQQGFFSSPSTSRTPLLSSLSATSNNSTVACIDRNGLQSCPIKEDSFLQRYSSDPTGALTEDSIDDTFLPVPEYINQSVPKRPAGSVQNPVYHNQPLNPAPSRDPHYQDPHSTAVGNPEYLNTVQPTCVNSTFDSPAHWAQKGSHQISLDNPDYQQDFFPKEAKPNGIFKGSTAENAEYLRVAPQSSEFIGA
SMILES,"invasion upon exogenous amino acid addition, mean±SEM (RWPE cells [2]; GNMT knockdown)","invasion upon exogenous amino acid addition, mean±SEM (RWPE cells [2]; [4])",total EGFR levels (EGFR),also measured
NCC(=O)O [glycine],0.20±0.03,0.46±0.04,–,"induction of invasion [1]: also induced invasion in these cells, although to a lesser degree than sarcosine"
"CNCC(=O)O [sarcosine, N-methylglycine]",0.64±0.07,0.65±0.05,elevated,src phosphorylation (src): time-dependent increase; EGFR phosphorylation (EGFR; sarcosine-treated PrEC compared to alanine-treated controls): time-dependent increase; p38MAPK phosphorylation (p38MAPK): phosphorylation of p38MAPK
C#Cc1cccc(Nc2ncnc3cc(OCCOC)c(OCCOC)cc23)c1 [erlotinib],–,–,–,decrease in sarcosine-induced invasion (RWPE cells [3]): 2 fold
"C[C@H](N)C(=O)O [alanine, reference compound]",–,–,elevated,–

# Reference: patent US20140051601A1, “METABOLOMIC PROFILING OF CANCER” (METABOLAN INC., priority 2006, published 2014)
